Molecules are shown by their SMILES. pIC50: −log10 of the molar value.

Among the data in ChEMBL document CHEMBL1127383, “Improved binding affinity for cyclophilin A by a cyclosporin derivative singly modified at its effector domain” (J Med Chem, 1994) are IC50 values, retold here.

A short description of test [1]: Compound was evaluated for in vitro immunosuppressive activity in the interleukin-2 reporter gene assay (IL2-RG). The format is functional.
The species entered for a further test is Mus musculus. The test is described as follows: Compound was evaluated for in vitro immunosuppressive activity in the mouse mixed lymphocyte reaction (MLR-M). The format is functional.
Test [2] addresses Peptidyl-prolyl cis-trans isomerase A (Homo sapiens, UniProt P62937). The test is described as follows: Compound was evaluated for in vitro binding affinity to cyclophilin A (CyP-A).

Chain of Peptidyl-prolyl cis-trans isomerase A (P62937 whole entry): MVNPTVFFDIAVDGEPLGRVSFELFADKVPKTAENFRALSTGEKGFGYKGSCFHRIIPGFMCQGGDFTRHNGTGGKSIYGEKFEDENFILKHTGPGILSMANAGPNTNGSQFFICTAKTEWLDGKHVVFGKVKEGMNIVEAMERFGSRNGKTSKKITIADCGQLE

For `C/C=C/C[C@@H](C)[C@@H](O)[C@H]1C(=O)NC(CC)C(=O)N(C)CC(=O)N(C)[C@@H](C[C@@H](C)CC)C(=O)N[C@@H](C(C)C)C(=O)N(C)[C@@H](CC(C)C)C(=O)N[C@@H](C)C(=O)N[C@H](C)C(=O)N(C)[C@@H](CC(C)C)C(=O)N(C)[C@@H](CC(C)C)C(=O)N(C)C(C(C)C)C(=O)N1C` (single isomer, unassigned), the pIC50 is 7.77 in test [1], 7.35 in the test listed under Mus musculus and 8.64 in test [2].
The like results for `C/C=C/C[C@@H](C)[C@@H](O)[C@H]1C(=O)N[C@@H](CC)C(=O)N(C)CC(=O)N(C)[C@@H](C[C@@H](C)CC)C(=O)N[C@@H](C(C)C)C(=O)N(C)[C@@H](CC(C)C)C(=O)N[C@@H](C)C(=O)N[C@H](C)C(=O)N(C)[C@@H](CC(C)C)C(=O)N(C)[C@@H](CC(C)C)C(=O)N(C)[C@@H](C(C)C)C(=O)N1C` were, in that order, 7.85, 7.34 and 7.80.
